Each block holds one compound with its values, some of them ahead of it.
Assay: Hygroscopicity by Dynamic Vapor Sorption (DVS), sorption/desorption profile
Format: physicochemical
Settings: for weight gain from 0 to 95% RH / Change In Mass (%) - ref, Desorption / Change In Mass (%) - ref, Sorption / Change In Mass (%) - ref, Hysteresis: DVS 25° C.; for hygroscopicity classification: based on DVS weight gain from 0 to 95% RH
Experimental: The preparation of lactose co-crystal and asparagine co-crystal were scaled up and repeated (about 400 mg of dapagliflozin free form was dissolved in 26 ml of IPA) and XRPD, PLM, TGA, DSC, NMR and DVS analyses were conducted for physicochemical properties evaluation. Before physicochemical properties evaluation, the solids precipitated out were isolated and dried off at 40° C. for 4 hours in vacuum drier. After hygroscopicity test, the sample was retested by XRPD to determine if any form transformation during the DVS test.
The sorption/desorption profiles of dapagliflozin Form I were tested at 25° C. under 0-95% relative humidity. […] This sample was tested by XRPD.

weight gain from 0 to 95% RH: 1.80%
Change In Mass (%) - ref, Desorption (cycle 1, target 0.0 % P/Po): 0.159%
Change In Mass (%) - ref, Sorption (cycle 1, target 0.0 % P/Po): 0.002%
Change In Mass (%) - ref, Desorption (cycle 1, target 5.0 % P/Po): 0.302%
Change In Mass (%) - ref, Hysteresis (cycle 1, target 5.0 % P/Po): 0.071%
Change In Mass (%) - ref, Sorption (cycle 1, target 5.0 % P/Po): 0.231%
Change In Mass (%) - ref, Desorption (cycle 1, target 10.0 % P/Po): 0.341%
Change In Mass (%) - ref, Hysteresis (cycle 1, target 10.0 % P/Po): 0.071%
Change In Mass (%) - ref, Sorption (cycle 1, target 10.0 % P/Po): 0.270%
Change In Mass (%) - ref, Desorption (cycle 1, target 15.0 % P/Po): 0.364%
Change In Mass (%) - ref, Hysteresis (cycle 1, target 15.0 % P/Po): 0.060%
Change In Mass (%) - ref, Sorption (cycle 1, target 15.0 % P/Po): 0.304%
Change In Mass (%) - ref, Desorption (cycle 1, target 20.0 % P/Po): 0.371%
Change In Mass (%) - ref, Hysteresis (cycle 1, target 20.0 % P/Po): 0.035%
Change In Mass (%) - ref, Sorption (cycle 1, target 20.0 % P/Po): 0.336%
Change In Mass (%) - ref, Desorption (cycle 1, target 25.0 % P/Po): 0.392%
Change In Mass (%) - ref, Hysteresis (cycle 1, target 25.0 % P/Po): 0.022%
Change In Mass (%) - ref, Sorption (cycle 1, target 25.0 % P/Po): 0.370%
Change In Mass (%) - ref, Desorption (cycle 1, target 30.0 % P/Po): 0.412%
Change In Mass (%) - ref, Hysteresis (cycle 1, target 30.0 % P/Po): 0.009%
Change In Mass (%) - ref, Sorption (cycle 1, target 30.0 % P/Po): 0.404%
Change In Mass (%) - ref, Desorption (cycle 1, target 35.0 % P/Po): 0.440%
Change In Mass (%) - ref, Hysteresis (cycle 1, target 35.0 % P/Po): −0.006%
Change In Mass (%) - ref, Sorption (cycle 1, target 35.0 % P/Po): 0.446%
Change In Mass (%) - ref, Desorption (cycle 1, target 40.0 % P/Po): 0.474%
Change In Mass (%) - ref, Hysteresis (cycle 1, target 40.0 % P/Po): −0.020%
Change In Mass (%) - ref, Sorption (cycle 1, target 40.0 % P/Po): 0.493%
Change In Mass (%) - ref, Desorption (cycle 1, target 45.0 % P/Po): 0.517%
Change In Mass (%) - ref, Hysteresis (cycle 1, target 45.0 % P/Po): −0.026%
Change In Mass (%) - ref, Sorption (cycle 1, target 45.0 % P/Po): 0.542%
Change In Mass (%) - ref, Desorption (cycle 1, target 50.0 % P/Po): 0.565%
Change In Mass (%) - ref, Hysteresis (cycle 1, target 50.0 % P/Po): −0.042%
Change In Mass (%) - ref, Sorption (cycle 1, target 50.0 % P/Po): 0.607%
Change In Mass (%) - ref, Desorption (cycle 1, target 55.0 % P/Po): 0.600%
Change In Mass (%) - ref, Hysteresis (cycle 1, target 55.0 % P/Po): −0.073%
Change In Mass (%) - ref, Sorption (cycle 1, target 55.0 % P/Po): 0.673%
Change In Mass (%) - ref, Desorption (cycle 1, target 60.0 % P/Po): 0.650%
Change In Mass (%) - ref, Hysteresis (cycle 1, target 60.0 % P/Po): −0.086%
Change In Mass (%) - ref, Sorption (cycle 1, target 60.0 % P/Po): 0.736%
Change In Mass (%) - ref, Desorption (cycle 1, target 65.0 % P/Po): 0.729%
Change In Mass (%) - ref, Hysteresis (cycle 1, target 65.0 % P/Po): −0.057%
Change In Mass (%) - ref, Sorption (cycle 1, target 65.0 % P/Po): 0.786%
Change In Mass (%) - ref, Desorption (cycle 1, target 70.0 % P/Po): 0.794%
Change In Mass (%) - ref, Hysteresis (cycle 1, target 70.0 % P/Po): −0.075%
Change In Mass (%) - ref, Sorption (cycle 1, target 70.0 % P/Po): 0.869%
Change In Mass (%) - ref, Desorption (cycle 1, target 75.0 % P/Po): 0.878%
Change In Mass (%) - ref, Hysteresis (cycle 1, target 75.0 % P/Po): −0.078%
Change In Mass (%) - ref, Sorption (cycle 1, target 75.0 % P/Po): 0.956%
Change In Mass (%) - ref, Desorption (cycle 1, target 80.0 % P/Po): 1.031%
Change In Mass (%) - ref, Hysteresis (cycle 1, target 80.0 % P/Po): −0.041%
Change In Mass (%) - ref, Sorption (cycle 1, target 80.0 % P/Po): 1.072%
Change In Mass (%) - ref, Desorption (cycle 1, target 85.0 % P/Po): 1.171%
Change In Mass (%) - ref, Hysteresis (cycle 1, target 85.0 % P/Po): −0.030%
Change In Mass (%) - ref, Sorption (cycle 1, target 85.0 % P/Po): 1.201%
Change In Mass (%) - ref, Desorption (cycle 1, target 90.0 % P/Po): 1.378%
Change In Mass (%) - ref, Hysteresis (cycle 1, target 90.0 % P/Po): −0.019%
Change In Mass (%) - ref, Sorption (cycle 1, target 90.0 % P/Po): 1.397%
Change In Mass (%) - ref, Desorption (cycle 1, target 95.0 % P/Po): 1.798%
Change In Mass (%) - ref, Sorption (cycle 1, target 95.0 % P/Po): 1.798%
hygroscopicity classification: slightly hygroscopic
SMILES: CCOc1ccc(Cc2cc(C3OC(CO)C(O)C(O)C3O)ccc2Cl)cc1.NC(=O)CC(N)C(=O)O (stereo not drawn) [Asparagine co-crystal]

weight gain from 0 to 95% RH: 2.16%
Change In Mass (%) - ref, Desorption (cycle 1, target 0.0 % P/Po): 0.077%
Change In Mass (%) - ref, Sorption (cycle 1, target 0.0 % P/Po): 0.000%
Change In Mass (%) - ref, Desorption (cycle 1, target 5.0 % P/Po): 0.104%
Change In Mass (%) - ref, Hysteresis (cycle 1, target 5.0 % P/Po): 0.083%
Change In Mass (%) - ref, Sorption (cycle 1, target 5.0 % P/Po): 0.021%
Change In Mass (%) - ref, Desorption (cycle 1, target 10.0 % P/Po): 0.120%
Change In Mass (%) - ref, Hysteresis (cycle 1, target 10.0 % P/Po): 0.078%
Change In Mass (%) - ref, Sorption (cycle 1, target 10.0 % P/Po): 0.042%
Change In Mass (%) - ref, Desorption (cycle 1, target 15.0 % P/Po): 0.136%
Change In Mass (%) - ref, Hysteresis (cycle 1, target 15.0 % P/Po): 0.073%
Change In Mass (%) - ref, Sorption (cycle 1, target 15.0 % P/Po): 0.064%
Change In Mass (%) - ref, Desorption (cycle 1, target 20.0 % P/Po): 0.151%
Change In Mass (%) - ref, Hysteresis (cycle 1, target 20.0 % P/Po): 0.066%
Change In Mass (%) - ref, Sorption (cycle 1, target 20.0 % P/Po): 0.085%
Change In Mass (%) - ref, Desorption (cycle 1, target 25.0 % P/Po): 0.170%
Change In Mass (%) - ref, Hysteresis (cycle 1, target 25.0 % P/Po): 0.063%
Change In Mass (%) - ref, Sorption (cycle 1, target 25.0 % P/Po): 0.107%
Change In Mass (%) - ref, Desorption (cycle 1, target 30.0 % P/Po): 0.188%
Change In Mass (%) - ref, Hysteresis (cycle 1, target 30.0 % P/Po): 0.058%
Change In Mass (%) - ref, Sorption (cycle 1, target 30.0 % P/Po): 0.131%
Change In Mass (%) - ref, Desorption (cycle 1, target 35.0 % P/Po): 0.213%
Change In Mass (%) - ref, Hysteresis (cycle 1, target 35.0 % P/Po): 0.053%
Change In Mass (%) - ref, Sorption (cycle 1, target 35.0 % P/Po): 0.160%
Change In Mass (%) - ref, Desorption (cycle 1, target 40.0 % P/Po): 0.238%
Change In Mass (%) - ref, Hysteresis (cycle 1, target 40.0 % P/Po): 0.036%
Change In Mass (%) - ref, Sorption (cycle 1, target 40.0 % P/Po): 0.201%
Change In Mass (%) - ref, Desorption (cycle 1, target 45.0 % P/Po): 0.266%
Change In Mass (%) - ref, Hysteresis (cycle 1, target 45.0 % P/Po): 0.022%
Change In Mass (%) - ref, Sorption (cycle 1, target 45.0 % P/Po): 0.244%
Change In Mass (%) - ref, Desorption (cycle 1, target 50.0 % P/Po): 0.296%
Change In Mass (%) - ref, Hysteresis (cycle 1, target 50.0 % P/Po): 0.013%
Change In Mass (%) - ref, Sorption (cycle 1, target 50.0 % P/Po): 0.283%
Change In Mass (%) - ref, Desorption (cycle 1, target 55.0 % P/Po): 0.330%
Change In Mass (%) - ref, Hysteresis (cycle 1, target 55.0 % P/Po): 0.007%
Change In Mass (%) - ref, Sorption (cycle 1, target 55.0 % P/Po): 0.323%
Change In Mass (%) - ref, Desorption (cycle 1, target 60.0 % P/Po): 0.366%
Change In Mass (%) - ref, Hysteresis (cycle 1, target 60.0 % P/Po): 0.003%
Change In Mass (%) - ref, Sorption (cycle 1, target 60.0 % P/Po): 0.363%
Change In Mass (%) - ref, Desorption (cycle 1, target 65.0 % P/Po): 0.410%
Change In Mass (%) - ref, Hysteresis (cycle 1, target 65.0 % P/Po): 0.000%
Change In Mass (%) - ref, Sorption (cycle 1, target 65.0 % P/Po): 0.409%
Change In Mass (%) - ref, Desorption (cycle 1, target 70.0 % P/Po): 0.465%
Change In Mass (%) - ref, Hysteresis (cycle 1, target 70.0 % P/Po): 0.000%
Change In Mass (%) - ref, Sorption (cycle 1, target 70.0 % P/Po): 0.466%
Change In Mass (%) - ref, Desorption (cycle 1, target 75.0 % P/Po): 0.531%
Change In Mass (%) - ref, Hysteresis (cycle 1, target 75.0 % P/Po): −0.004%
Change In Mass (%) - ref, Sorption (cycle 1, target 75.0 % P/Po): 0.534%
Change In Mass (%) - ref, Desorption (cycle 1, target 80.0 % P/Po): 0.618%
Change In Mass (%) - ref, Hysteresis (cycle 1, target 80.0 % P/Po): −0.004%
Change In Mass (%) - ref, Sorption (cycle 1, target 80.0 % P/Po): 0.622%
Change In Mass (%) - ref, Desorption (cycle 1, target 85.0 % P/Po): 0.768%
Change In Mass (%) - ref, Hysteresis (cycle 1, target 85.0 % P/Po): 0.005%
Change In Mass (%) - ref, Sorption (cycle 1, target 85.0 % P/Po): 0.762%
Change In Mass (%) - ref, Desorption (cycle 1, target 90.0 % P/Po): 1.081%
Change In Mass (%) - ref, Hysteresis (cycle 1, target 90.0 % P/Po): 0.069%
Change In Mass (%) - ref, Sorption (cycle 1, target 90.0 % P/Po): 1.012%
Change In Mass (%) - ref, Desorption (cycle 1, target 95.0 % P/Po): 2.162%
Change In Mass (%) - ref, Sorption (cycle 1, target 95.0 % P/Po): 2.162%
hygroscopicity classification: hygroscopic
SMILES: CCOc1ccc(Cc2cc(C3OC(CO)C(O)C(O)C3O)ccc2Cl)cc1.OCC1OC(OC2C(CO)OC(O)C(O)C2O)C(O)C(O)C1O (stereo not drawn) [lactose co-crystal]

— patent US9006188B2, “Co-crystals of dapagliflozin” (Mapi Pharma Ltd., priority 2013, dated 2015)
